Laboratory results: US11697648B2, “Fused pyrimidine pyridinone compounds as JAK inhibitors” (THERAVANCE BIOPHARMA R&D IP, LLC, priority 2019, dated 2023)

Assays:
JAK1 = JAK1 (Homo sapiens (Human), UniProt P23458); test: Biochemical JAK1 kinase assay (LanthaScreen)
Summary of the method: (§1)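 GST-JAK + GFP-STAT1 peptide, HEPES pH 7.5/MgCl2/EGTA/Brij-35 buffer; cpd preincubation 1 h RT; ATP start, 1 h RT; stop with 10 mM EDTA + 2 nM Tb-anti-pSTAT1; TR-FRET 520/495. 4-parameter IC50 → pKi (Cheng-Prusoff).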

JAK2 = JAK2 (Homo sapiens (Human), UniProt O60674); test: Biochemical JAK2 kinase assay (LanthaScreen)
JAK2, sequence (O60674 whole entry): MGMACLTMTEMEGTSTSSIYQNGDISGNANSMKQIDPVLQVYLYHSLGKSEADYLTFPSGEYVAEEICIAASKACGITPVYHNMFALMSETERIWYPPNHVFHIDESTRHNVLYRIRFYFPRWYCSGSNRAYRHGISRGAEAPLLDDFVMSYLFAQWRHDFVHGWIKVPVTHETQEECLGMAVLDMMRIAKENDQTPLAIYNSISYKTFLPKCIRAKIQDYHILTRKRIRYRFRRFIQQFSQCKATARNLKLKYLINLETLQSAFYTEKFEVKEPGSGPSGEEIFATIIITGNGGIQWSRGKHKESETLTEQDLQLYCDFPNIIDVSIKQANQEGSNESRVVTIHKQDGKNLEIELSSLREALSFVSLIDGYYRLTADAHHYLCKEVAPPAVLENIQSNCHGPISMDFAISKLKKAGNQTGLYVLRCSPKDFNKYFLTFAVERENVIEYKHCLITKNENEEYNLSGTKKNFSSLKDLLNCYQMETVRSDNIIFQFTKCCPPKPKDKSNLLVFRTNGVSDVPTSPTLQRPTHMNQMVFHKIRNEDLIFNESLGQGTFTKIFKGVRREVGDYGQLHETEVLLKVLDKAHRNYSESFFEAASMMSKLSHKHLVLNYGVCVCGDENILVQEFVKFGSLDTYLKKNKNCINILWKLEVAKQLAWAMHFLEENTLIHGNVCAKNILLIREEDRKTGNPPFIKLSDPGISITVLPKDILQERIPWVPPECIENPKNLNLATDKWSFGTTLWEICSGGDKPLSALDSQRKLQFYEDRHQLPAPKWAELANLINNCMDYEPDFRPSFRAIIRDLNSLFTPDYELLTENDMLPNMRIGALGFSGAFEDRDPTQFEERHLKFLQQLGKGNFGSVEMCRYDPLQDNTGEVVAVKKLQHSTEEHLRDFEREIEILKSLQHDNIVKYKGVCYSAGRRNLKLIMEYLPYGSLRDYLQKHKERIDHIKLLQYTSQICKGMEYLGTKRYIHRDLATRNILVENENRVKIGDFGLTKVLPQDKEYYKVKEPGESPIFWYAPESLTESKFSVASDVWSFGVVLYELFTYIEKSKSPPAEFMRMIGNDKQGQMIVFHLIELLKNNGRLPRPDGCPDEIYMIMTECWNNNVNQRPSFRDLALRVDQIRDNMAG
Summary of the method: as §1

JAK3 = JAK3 (Homo sapiens (Human), UniProt P52333); test: Biochemical JAK3 kinase assay (LanthaScreen); settings: for JAK3 (pKi)-JAK1 (pKi): selectivity JAK3 over JAK1, difference of pKi
JAK3, sequence (P52333 whole entry): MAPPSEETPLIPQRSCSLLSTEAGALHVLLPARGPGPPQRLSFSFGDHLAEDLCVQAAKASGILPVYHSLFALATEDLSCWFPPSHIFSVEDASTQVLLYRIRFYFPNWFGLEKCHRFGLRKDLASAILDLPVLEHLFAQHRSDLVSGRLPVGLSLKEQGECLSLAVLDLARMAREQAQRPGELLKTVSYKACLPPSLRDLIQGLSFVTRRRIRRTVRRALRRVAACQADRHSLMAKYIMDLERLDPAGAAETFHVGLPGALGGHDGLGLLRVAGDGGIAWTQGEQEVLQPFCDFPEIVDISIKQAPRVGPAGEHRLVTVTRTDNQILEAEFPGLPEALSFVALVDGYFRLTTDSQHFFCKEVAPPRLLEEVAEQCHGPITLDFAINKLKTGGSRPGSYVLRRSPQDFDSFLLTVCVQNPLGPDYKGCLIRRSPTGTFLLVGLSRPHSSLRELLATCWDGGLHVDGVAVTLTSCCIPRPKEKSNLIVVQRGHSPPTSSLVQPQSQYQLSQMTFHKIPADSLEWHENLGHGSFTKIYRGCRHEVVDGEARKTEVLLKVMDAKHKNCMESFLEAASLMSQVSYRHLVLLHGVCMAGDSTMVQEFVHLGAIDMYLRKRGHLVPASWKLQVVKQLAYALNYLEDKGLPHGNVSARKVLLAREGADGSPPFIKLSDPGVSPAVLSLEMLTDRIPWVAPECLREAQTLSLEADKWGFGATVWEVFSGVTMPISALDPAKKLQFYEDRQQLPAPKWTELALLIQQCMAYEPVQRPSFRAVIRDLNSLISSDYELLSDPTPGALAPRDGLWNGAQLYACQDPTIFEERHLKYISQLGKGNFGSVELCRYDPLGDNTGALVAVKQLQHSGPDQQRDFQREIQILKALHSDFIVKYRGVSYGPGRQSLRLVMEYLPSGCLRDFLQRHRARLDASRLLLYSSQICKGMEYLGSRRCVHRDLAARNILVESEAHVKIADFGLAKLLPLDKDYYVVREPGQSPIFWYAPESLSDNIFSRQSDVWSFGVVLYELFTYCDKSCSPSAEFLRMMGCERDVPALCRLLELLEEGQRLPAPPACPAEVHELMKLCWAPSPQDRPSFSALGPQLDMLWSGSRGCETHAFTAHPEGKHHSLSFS
Summary of the method: as §1

Tyk2 = Tyk2 (Homo sapiens (Human), UniProt P29597); test: Biochemical Tyk2 kinase assay (LanthaScreen)
Tyk2, sequence (P29597 whole entry): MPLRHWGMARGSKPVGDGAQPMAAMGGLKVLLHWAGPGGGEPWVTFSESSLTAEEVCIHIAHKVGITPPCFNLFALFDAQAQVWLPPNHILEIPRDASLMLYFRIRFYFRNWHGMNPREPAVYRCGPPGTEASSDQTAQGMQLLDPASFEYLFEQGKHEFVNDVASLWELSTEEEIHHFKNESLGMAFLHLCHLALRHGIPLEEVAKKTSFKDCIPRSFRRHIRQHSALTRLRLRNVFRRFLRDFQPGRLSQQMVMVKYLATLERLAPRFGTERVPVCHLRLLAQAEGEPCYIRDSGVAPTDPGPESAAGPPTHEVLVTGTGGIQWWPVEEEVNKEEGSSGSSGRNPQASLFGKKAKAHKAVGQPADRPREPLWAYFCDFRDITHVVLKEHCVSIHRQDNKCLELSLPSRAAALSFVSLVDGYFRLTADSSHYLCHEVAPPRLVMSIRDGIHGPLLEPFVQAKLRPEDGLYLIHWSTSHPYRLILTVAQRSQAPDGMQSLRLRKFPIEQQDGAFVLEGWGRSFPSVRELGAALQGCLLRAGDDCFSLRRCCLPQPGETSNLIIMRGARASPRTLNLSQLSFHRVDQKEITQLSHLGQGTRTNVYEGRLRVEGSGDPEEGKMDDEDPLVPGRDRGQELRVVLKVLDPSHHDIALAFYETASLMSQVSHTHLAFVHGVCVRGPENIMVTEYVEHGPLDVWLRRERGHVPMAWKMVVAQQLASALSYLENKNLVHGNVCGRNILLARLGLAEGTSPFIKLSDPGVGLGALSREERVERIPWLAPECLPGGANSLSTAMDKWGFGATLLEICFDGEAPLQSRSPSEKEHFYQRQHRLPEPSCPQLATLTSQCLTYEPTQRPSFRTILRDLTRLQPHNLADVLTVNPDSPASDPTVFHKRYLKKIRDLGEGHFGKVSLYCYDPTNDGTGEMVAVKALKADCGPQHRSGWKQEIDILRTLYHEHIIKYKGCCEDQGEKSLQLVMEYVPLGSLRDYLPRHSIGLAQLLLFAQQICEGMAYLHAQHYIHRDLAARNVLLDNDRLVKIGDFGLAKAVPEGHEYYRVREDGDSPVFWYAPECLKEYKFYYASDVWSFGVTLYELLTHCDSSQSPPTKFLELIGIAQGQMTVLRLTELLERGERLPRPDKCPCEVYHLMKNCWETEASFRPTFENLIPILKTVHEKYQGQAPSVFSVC
Summary of the method: as §1

[1] = tested on: IL-2 stimulated STAT5 phosphorylation in Tall-1 human T cell line (JAK3); test: Cellular JAK3 potency assay: inhibition of IL-2 stimulated pSTAT5 in Tall-1 T cells; format: cell-based; settings: IL-2 stimulated pSTAT5, Tall-1 T cells
Summary of the method: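 Tall-1 cells, 45,000 per well, preincubated 1 hour with compound at 37 °C, then stimulated 30 minutes with IL-2 at 300 ng/ml final. pSTAT5 (Tyr694/699) in lysates quantified by AlphaLISA SureFire Ultra. pIC50 derived from inhibition curves, given as mean with SD.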

Caco-2 cell monolayers = test: Caco-2 permeation assay; format: in vitro ADME; settings: 5 μM, A-B direction, with Verapamil (25 μM)
Summary of the method: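 Compounds tested at 5 μM in duplicate across Caco-2 monolayers, apical-to-basolateral, with 25 μM verapamil to block P-gp, at 37° C., 5% CO2. Apical and basal samples taken at 0 and 120 min, analysed by LC-MS/MS; Papp (cm/sec) calculated as dQ/(dt×Area×concentration).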

[2] = Colon and plasma mouse pharmacokinetics; format: in vivo; settings: mouse, colon tissue / plasma; male Balb/c mice, 10 mg/kg PO; ratio of the colon AUC to the plasma AUC
Summary of the method: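 Male Balb/c mice given 10 mg/kg PO in 1% HPMC + 0.1% Tween-80; plasma, colon tissue and colon contents taken at 0.5, 2 and 6 h, quantified by LC/MS/MS. Non-compartmental analysis on means of 2 animals/time point; colon:plasma ratio taken as colon AUC over plasma AUC.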

JAK1, sequence (P23458 whole entry): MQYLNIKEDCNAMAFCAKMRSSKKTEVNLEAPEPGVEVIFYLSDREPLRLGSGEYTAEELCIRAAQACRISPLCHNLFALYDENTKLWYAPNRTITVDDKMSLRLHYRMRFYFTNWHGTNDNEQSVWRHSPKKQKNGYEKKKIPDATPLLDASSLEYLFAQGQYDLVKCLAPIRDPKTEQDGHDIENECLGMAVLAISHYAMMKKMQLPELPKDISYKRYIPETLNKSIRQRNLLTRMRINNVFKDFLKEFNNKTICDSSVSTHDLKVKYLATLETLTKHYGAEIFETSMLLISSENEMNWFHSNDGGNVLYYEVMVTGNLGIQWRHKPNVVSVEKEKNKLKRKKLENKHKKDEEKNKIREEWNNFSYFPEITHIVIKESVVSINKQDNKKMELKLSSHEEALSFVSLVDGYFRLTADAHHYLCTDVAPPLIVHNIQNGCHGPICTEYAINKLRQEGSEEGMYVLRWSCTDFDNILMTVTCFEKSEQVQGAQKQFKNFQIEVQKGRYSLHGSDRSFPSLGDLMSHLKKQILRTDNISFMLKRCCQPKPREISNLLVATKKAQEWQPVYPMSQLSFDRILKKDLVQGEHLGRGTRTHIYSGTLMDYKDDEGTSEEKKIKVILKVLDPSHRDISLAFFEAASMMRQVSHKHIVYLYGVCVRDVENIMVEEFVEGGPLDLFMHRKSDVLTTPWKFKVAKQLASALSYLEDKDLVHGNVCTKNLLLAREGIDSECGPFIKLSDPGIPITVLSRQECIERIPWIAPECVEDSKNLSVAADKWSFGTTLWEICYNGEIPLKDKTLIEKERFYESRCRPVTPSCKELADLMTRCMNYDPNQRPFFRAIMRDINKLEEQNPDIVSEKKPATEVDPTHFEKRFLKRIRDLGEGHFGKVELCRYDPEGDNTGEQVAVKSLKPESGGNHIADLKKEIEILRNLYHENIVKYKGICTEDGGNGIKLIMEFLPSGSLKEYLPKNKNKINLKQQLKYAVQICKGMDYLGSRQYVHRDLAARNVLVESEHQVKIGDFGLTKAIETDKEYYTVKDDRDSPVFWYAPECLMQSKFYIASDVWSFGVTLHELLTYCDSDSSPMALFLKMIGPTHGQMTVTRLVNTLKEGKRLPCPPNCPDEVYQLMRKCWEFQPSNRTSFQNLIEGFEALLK

Compound: C=CC(=O)N1CC(CCn2c(=O)ccc3cnc(Nc4cccc(CN5CCN(C(C)=O)CC5)c4)nc32)C1 [Example 133]
- JAK 1 (pKi) (JAK1): E (E represents a pKi value of 7 or below (Ki of 100 nM or above))
- JAK 2 (pKi) (JAK2): E (E represents a pKi value of 7 or below (Ki of 100 nM or above))
- JAK 3 (pKi) (JAK3): A (A represents a pKi value≥10 (Ki≤0.1 nM))
- JAK3 (pKi)-JAK1 (pKi) (JAK3): A (A represents a value of 3 or above)
- Tyk 2 (pKi) (Tyk2): E (E represents a pKi value of 7 or below (Ki of 100 nM or above))
- Tall-1 (pIC50) [1]: B (B represents a pC50 value between 6.7 (included) and 7.5 (IC50 between 200 nM and 32 nM))
- Caco Kp (Caco-2 cell monolayers): A (A represents a value below 5×10^−6 cm/sec)
- Kp [2]: > 100

Compound: C=CC(=O)N1CC(CCn2c(=O)ccc3cnc(Nc4cccc(N5CCN(C)CC5)c4)nc32)C1 [Example 31]
- JAK 1 (pKi) (JAK1): E (E represents a pKi value of 7 or below (Ki of 100 nM or above))
- JAK 2 (pKi) (JAK2): E (E represents a pKi value of 7 or below (Ki of 100 nM or above))
- JAK 3 (pKi) (JAK3): B (B represents pKi value between 9 and 10 (Ki between 1 nM and 0.1 nM))
- JAK3 (pKi)-JAK1 (pKi) (JAK3): A (A represents a value of 3 or above)
- Tyk 2 (pKi) (Tyk2): E (E represents a pKi value of 7 or below (Ki of 100 nM or above))
- Tall-1 (pIC50) [1]: B (B represents a pC50 value between 6.7 (included) and 7.5 (IC50 between 200 nM and 32 nM))
- Caco Kp (Caco-2 cell monolayers): A (A represents a value below 5×10^−6 cm/sec)
- Kp [2]: > 50

Compound: C=CC(=O)N1CCN(CCn2c(=O)ccc3cnc(Nc4ccc(N5CCSCC5)cc4)nc32)CC1 [Example 38]
- JAK 1 (pKi) (JAK1): E (E represents a pKi value of 7 or below (Ki of 100 nM or above))
- JAK 2 (pKi) (JAK2): E (E represents a pKi value of 7 or below (Ki of 100 nM or above))
- JAK 3 (pKi) (JAK3): B (B represents pKi value between 9 and 10 (Ki between 1 nM and 0.1 nM))
- JAK3 (pKi)-JAK1 (pKi) (JAK3): A (A represents a value of 3 or above)
- Tyk 2 (pKi) (Tyk2): E (E represents a pKi value of 7 or below (Ki of 100 nM or above))
- Tall-1 (pIC50) [1]: B (B represents a pC50 value between 6.7 (included) and 7.5 (IC50 between 200 nM and 32 nM))
- Caco Kp (Caco-2 cell monolayers): C (C represents a value between 10×10^−6 and 30×10^−6 cm/sec)
- Kp [2]: > 1000

Compound: C=CC(=O)N1CCN(CCn2c(=O)ccc3cnc(Nc4ccc(N5CCN(C(=O)CSC)CC5)cc4)nc32)CC1 [Example 150]
- JAK 1 (pKi) (JAK1): E (E represents a pKi value of 7 or below (Ki of 100 nM or above))
- JAK 2 (pKi) (JAK2): E (E represents a pKi value of 7 or below (Ki of 100 nM or above))
- JAK 3 (pKi) (JAK3): A (A represents a pKi value≥10 (Ki≤0.1 nM))
- JAK3 (pKi)-JAK1 (pKi) (JAK3): A (A represents a value of 3 or above)
- Tyk 2 (pKi) (Tyk2): E (E represents a pKi value of 7 or below (Ki of 100 nM or above))
- Tall-1 (pIC50) [1]: B (B represents a pC50 value between 6.7 (included) and 7.5 (IC50 between 200 nM and 32 nM))
- Caco Kp (Caco-2 cell monolayers): A (A represents a value below 5×10^−6 cm/sec)
- Kp [2]: > 100

Compound: C=CC(=O)N1CCN(CCn2c(=O)ccc3cnc(Nc4ccc(N5CCN(C(C)=O)CC5)cc4)nc32)[C@@H](C)C1 [Example 155]
- JAK 1 (pKi) (JAK1): E (E represents a pKi value of 7 or below (Ki of 100 nM or above))
- JAK 2 (pKi) (JAK2): E (E represents a pKi value of 7 or below (Ki of 100 nM or above))
- JAK 3 (pKi) (JAK3): B (B represents pKi value between 9 and 10 (Ki between 1 nM and 0.1 nM))
- JAK3 (pKi)-JAK1 (pKi) (JAK3): A (A represents a value of 3 or above)
- Tyk 2 (pKi) (Tyk2): E (E represents a pKi value of 7 or below (Ki of 100 nM or above))
- Tall-1 (pIC50) [1]: B (B represents a pC50 value between 6.7 (included) and 7.5 (IC50 between 200 nM and 32 nM))
- Caco Kp (Caco-2 cell monolayers): A (A represents a value below 5×10^−6 cm/sec)
- Kp [2]: > 1000

Compound: C=CC(=O)N1CC(CCn2c(=O)ccc3cnc(Nc4ccc(N5CCSCC5)cc4)nc32)C1 [Example 26]
- JAK 1 (pKi) (JAK1): E (E represents a pKi value of 7 or below (Ki of 100 nM or above))
- JAK 2 (pKi) (JAK2): E (E represents a pKi value of 7 or below (Ki of 100 nM or above))
- JAK 3 (pKi) (JAK3): B (B represents pKi value between 9 and 10 (Ki between 1 nM and 0.1 nM))
- JAK3 (pKi)-JAK1 (pKi) (JAK3): A (A represents a value of 3 or above)
- Tyk 2 (pKi) (Tyk2): E (E represents a pKi value of 7 or below (Ki of 100 nM or above))
- Tall-1 (pIC50) [1]: B (B represents a pC50 value between 6.7 (included) and 7.5 (IC50 between 200 nM and 32 nM))
- Caco Kp (Caco-2 cell monolayers): C (C represents a value between 10×10^−6 and 30×10^−6 cm/sec)
- Kp [2]: > 1000
